Experimental data published in patent EP0603240B1, “SAFENING HERBICIDAL PYRAZOLYLSULFONYLUREAS” (priority 1991, dated 1993).

Tests used:
Assay type in all cases: in vivo
[1] = tested on: corn; assay: Example 26, field trials, pre-plant incorporation (PPI): corn growth reduction; details: for maximum injury level (GR) / corn growth reduction (GR): PPI
Method: (§1) In order to better understand and to confirm the results of greenhouse tests with herbicidal compositions comprising representative compounds according to Formula I and an antidote with and without a co-herbicide, a large number of field trials were conducted. This example provides a summary of those field trials.
(§2) The primary purpose of the field trials summarized herein was to ascertain the amount of corn injury caused by a compound according to Formula I. viz. Herbicide No. 1, with and without a co-herbicide of the α-chloroacetanilide class, viz., Herbicide Nos. 6 and 7, and the extent that any corn injury could be safened by a dichloroacetamide antidotal compound, viz., Antidote No. 15.
(§3) Corn injury is generally expressed, in broad terms, in stand reduction, growth reduction, malformed plants and other more specific effects. For purposes of the summary here, the results of a plurality of field trials are expressed in terms of growth reduction (GR), i.e., a significant reduction in plant height of the corn stand. A common criteria for commercially-acceptable corn injury is an amount equal to or less than 10% malformed plants or stand reduction and for present reporting purposes, no greater than about 15% growth reduction. The corn injury/safening described for these field trials refers to commercially-unacceptable to commercially-acceptable performance.
(§4) In the field trials from a wide distribution of trial locations, soil types (all having in excess of 2% organic matter), climatic effects, etc., the test chemicals were applied as tank mixes in various modes of application, i.e., pre-plant incorporation (PPI) and preemergence surface application (PRE). Test plots were small plots with three replications in a randomized complete block design. Observations were made and recorded in a period of from 31-50 days after treatment.

[2] = tested on: corn; assay: Example 20, Procedure II: Herbicide No. 1 + EPTC or ERADICANE EXTRA with Antidote Nos. 5 and 15
Method: (§5) Containers were filled and compacted with a fumigated silt loam top soil to a depth of about 1.3 cm from the top of the container. A first container was designated as an untreated control, a second container was designated as a herbicide control, and a third container was designated as a herbicide + antidote test container. Each of the containers was seeded with a crop species. A measured amount of herbicide dispersed or dissolved in acetone was applied to a measured quantity of soil. To this same quantity of soil treated with herbicide, there was added a measured amount of antidote dispersed or dissolved in acetone. The quantity of soil treated with the herbicide and antidote was thoroughly mixed to incorporate the herbicide and antidote in the soil uniformly. The seed bed in the third container of soil was covered with the soil treated with the herbicide and antidote and the container was leveled. For each test series, the seed beds of the first and second containers were likewise covered by soil layers. the cover layer of the first container was not treated with herbicide or antidote.
(§6) The containers were then placed on a bench in a greenhouse and sub-irrigated as required for the duration of the test. […] Plant response is measured in terms of percent injury. Antidote efficacy is indicated as the difference in plant injury by the herbicide(s) without the antidote and with the antidote.
This procedure is the same as Procedure I, but modified in the manner that after incorporation of the chemicals (herbicide and antidote) the containers with the covered seedbed were treated with an initial overhead irrigation equivalent to 0.6 cm rainfall, then subsequently sub-irrigated as required on greenhouse benches.
This example describes experiments designed to test two generally efficacious antidotal compounds, i.e., Antidote Nos. 5 and 15, against the herbicidal action of the sulfonylurea compound, Herbicide No. 1, and the commercial herbicides EPTC (Herbicide No. 4) and ERADICANE® EXTRA (EPTC + R-29148, Antidote No. 5). Procedure II above was used in conducting these experiments. Formulations of EPTC and ERADICANE EXTRA were applied onto soil cover layers (to be applied over seed beds), followed by sequential pipetting of Herbicide No. 1 and Antidote No. 15. The soil was mixed to homogeneity and spread over the seed beds followed by 0.6 cm of overhead irrigation.

[3] = tested on: corn; assay: Example 26, field trials, preemergence surface application (PRE): corn growth reduction
Method: as §1, §2, §3, §4

[4] = tested on: velvetleaf (Abutilon theophrasti); assay: Example 4, Procedure I: Antidote Nos. 15 and 16 against Herbicide No. 1; details: no antidote, average of two replicates
Method: as §5, §6
(§7) In the series of greenhouse tests described below, for routine screening purposes the herbicide/antidote compositions were tested in crop/weed combinations involving corn as the crop and either or both of the weeds barnyardgrass (Echinochloa crusgalli), a monocotyledonous weed, and velvetleaf (Abutilon theophrasti), a dicotyledonous weed. In the tables below, these weeds are indicated by the symbols "BYG" and "VL", respectively.
(§8) This example describes tests with Antidote Nos. 15 and 16 to safen Herbicide No. 1 according to Procedure I using corn and the weeds barnyardgrass and velvetleaf as the test plants.

[5] = tested on: barnyardgrass (Echinochloa crusgalli); assay: as above; details: no antidote, average of two replicates
Method: as §5, §6, §7, §8

[6] = tested on: velvetleaf (Abutilon theophrasti); assay: Example 5, Procedure I: Herbicide No. 1 + alachlor (No. 7) with Antidote Nos. 15 and 16; details: no antidote
Method: as §5, §6, §7, §8
(§9) In the tests described in this example, the same procedure described in Example 4 was performed simultaneously therewith and under the same conditions, except that a co-herbicide, alachlor, was included in the same composition with Herbicide No. 1 and Antidote Nos. 15 and 16. Alachlor (Herbicide No. 7 herein) is the active ingredient in the commercial product LASSO® herbicide.

[7] = tested on: barnyardgrass (Echinochloa crusgalli); assay: as above; details: no antidote
Method: as §5, §6, §7, §8, §9

[8] = Herbicide No.1 4.48 + No.7 0.56 kg/ha
[9] = Herbicide No.1 4.48 + No.7 2.24 kg/ha
[10] = Herbicide No.1 6.72 + No.7 0.56 kg/ha
[11] = Herbicide No.1 6.72 + No.7 (alachlor) 2.24 kg/ha

## CC1(C)OC(c2ccco2)CN1C(=O)C(Cl)Cl (stereo not shown) [Antidote No. 15, Oxazolidine, 3-(dichloroacetyl)-5-(2-furanyl)-2,2-dimethyl]
[1]; Herbicide No. 1 0.14 kg/ha + Herbicide No. 6 + Antidote No. 15
  corn injury level (GR): 10.3%
[1]; Herbicide No. 1 0.28 kg/ha + Herbicide No. 6 + Antidote No. 15
  corn injury level (GR): 12.5%
[1]; Herbicide No. 1 0.7 kg/ha + Herbicide No. 6 + Antidote No. 15
  corn injury level (GR): 8.6%
[1]; Herbicide No. 1 0.07 kg/ha + Herbicide No. 7 + Antidote No. 15 1:1
  maximum injury level (GR): 22%
[1]; Herbicide No. 1 0.07 kg/ha + Herbicide No. 7 + Antidote No. 15 at 1:1 to Herbicide No. 1
  corn growth reduction (GR): 7.75%
[1]; Herbicide No. 1 0.14 kg/ha + Herbicide No. 7 + Antidote No. 15 1:1
  maximum injury level (GR): 26%
[1]; Herbicide No. 1 0.14 kg/ha + Herbicide No. 7 + Antidote No. 15 at 1:1 to Herbicide No. 1
  corn growth reduction (GR): 9.82%
[1]; field trials (PPI and PRE), under most conditions
  safening of corn, assessment in words: effectively reduced corn GR injury
[2]; Herbicide No.1 0.56 kg/ha + No. 4 2.24 kg/ha, Antidote No. 15 0.18 kg/ha
  % Injury Corn: 5%
[2]; Herbicide No.1 0.56 kg/ha + No. 4 4.48 kg/ha, Antidote No. 15 0.35 kg/ha
  % Injury Corn: 15%
[2]; Herbicide No.1 0.56 kg/ha + No. 4 6.78 kg/ha, Antidote No. 15 0.56 kg/ha
  % Injury Corn: 0%
[2]; Herbicide No.1 2.24 kg/ha + No. 4 2.24 kg/ha, Antidote No. 15 0.18 kg/ha
  % Injury Corn: 35%
[2]; Herbicide No.1 2.24 kg/ha + No. 4 4.48 kg/ha, Antidote No. 15 0.35 kg/ha
  % Injury Corn: 15%
[2]; Herbicide No.1 2.24 kg/ha + No. 4 6.78 kg/ha, Antidote No. 15 0.56 kg/ha
  % Injury Corn: 15%
[3]; Antidote No. 15 to Herbicide No. 1 ratio increased to 3:1
  crop injury, assessment in words: reduced crop injury even further
[3]; Herbicide No. 1 0.07 kg/ha + acetochlor + Antidote No. 15
  corn growth reduction (GR): 8.7%
[3]; Herbicide No. 1 0.14 kg/ha + acetochlor + Antidote No. 15
  corn growth reduction (GR): 8.2%
[3]; Herbicide No. 1 0.28 kg/ha + acetochlor + Antidote No. 15
  corn growth reduction (GR): 14.5%

## COC(=O)c1c(Cl)nn(C)c1S(=O)(=O)NC(=O)Nc1nc(OC)cc(OC)n1 [Herbicide No. 1]
[4]; Herb. No. 1 4.48 kg/ha
  % Injury VL: 90%
[4]; Herb. No. 1 6.72 kg/ha
  % Injury VL: 90%
[5]; Herb. No. 1 4.48 kg/ha
  % Injury BYG: 80%
[5]; Herb. No. 1 6.72 kg/ha
  % Injury BYG: 90%
[6]; [8]
  % Injury VL: 98%
[6]; [9]
  % Injury VL: 98%
[6]; [10]
  % Injury VL: 98%
[6]; [11]
  % Injury VL: 98%
[7]; [8]
  % Injury BYG: 99%
[7]; [9]
  % Injury BYG: 100%
[7]; [10]
  % Injury BYG: 99%
[7]; [11]
  % Injury BYG: 100%
[1]; Herbicide No. 1 0.14 kg/ha + Herbicide No. 6 (acetochlor), without an antidote
  corn injury level (GR): 14.9%
[1]; Herbicide No. 1 0.28 kg/ha + Herbicide No. 6 (acetochlor), without an antidote
  corn injury level (GR): 24.9%
[1]; Herbicide No. 1 0.7 kg/ha + Herbicide No. 6 (acetochlor), without an antidote
  corn injury level (GR): 12.5%
[1]; Herbicide No. 1 0.07 kg/ha + Herbicide No. 7 (alachlor), without an antidote
  corn growth reduction (GR): 9.75%
[1]; Herbicide No. 1 0.07 kg/ha + Herbicide No. 7, without an antidote
  maximum injury level (GR): 48%
[1]; Herbicide No. 1 0.14 kg/ha + Herbicide No. 7 (alachlor), without an antidote
  corn growth reduction (GR): 13.25%
[1]; Herbicide No. 1 0.14 kg/ha + Herbicide No. 7, without an antidote
  maximum injury level (GR): 48%
[3]; Herbicide No. 1 0.07 kg/ha + acetochlor, no antidote
  corn growth reduction (GR): 9.8%
[3]; Herbicide No. 1 0.14 kg/ha + acetochlor, no antidote
  corn growth reduction (GR): 13.4%
[3]; Herbicide No. 1 0.28 kg/ha + acetochlor, no antidote
  corn growth reduction (GR): 20.3%
